Test results as given in US8889854B2, “C-17 bicyclic amines of triterpenoids with HIV maturation inhibitory activity” (priority 2012, dated 2014).

Test system: recombinant NL4-3 virus (Renilla luciferase in nef, Gag P373S; NLRluc)
Assay: HIV Cell Culture Assay (luciferase reporter virus in MT-2 cells)
Type: cell-based
Conditions: luciferase activity
In short: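 NLRluc reporter virus (Renilla luciferase replacing part of nef, Gag P373S), made by transfecting 293T cells, was used to infect MT-2 cells for 4-5 days in serial dilutions of inhibitor. Antiviral activity was quantified from luciferase activity measured with a premixed lysis/Dual Luciferase reagent.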

[1] = Renilla, NL43, MT-2 cells infected for 4-5 days with NLRluc recombinants, reported as group A/B

C=C(C)[C@@H]1CC[C@]2(NCCN3[C@@H]4CCC[C@H]3COC4)CC[C@]3(C)[C@H](CC[C@@H]4[C@@]5(C)CC=C(c6ccc(C(=O)O)cc6)C(C)(C)[C@@H]5CC[C@]43C)[C@@H]12 [Example A1, 4-((1R,3aS,5aR,5bR,7aR,11aS,11bR,13aR,13bR)-3a-((2-((1R,5S)-3-oxa-9-azabicyclo[3.3.1]nonan-9-yl)ethyl)amino)-5a,5b,8,8,11a-pentamethyl-1-(prop-1-en-2-yl)-2,3,3a,4,5,5a,5b,6,7,7a,8,11,11a,11b,12,13,13a,13b-octadecahydro-1H-cyclopenta[a]chrysen-9-yl)benzoic acid]
EC50 (Renilla, NL43, MT-2 cells infected for 4-5 days with NLRluc recombinants): 30 nM

C=C(C)[C@@H]1CC[C@]2(NCCN3C[C@@H]4C[C@H]3CS4(=O)=O)CC[C@]3(C)[C@H](CC[C@@H]4[C@@]5(C)CC[C@H](OC(=O)CC(C)(C)C(=O)O)C(C)(C)[C@@H]5CC[C@]43C)[C@@H]12 [Example B12, 4-(((1R,3aS,5aR,5bR,7aR,9S,11aR,11bR,13aR,13bR)-3a-((2-((1S,4S)-2,2-dioxido-2-thia-5-azabicyclo[2.2.1]heptan-5-yl)ethyl)amino)-5a,5b,8,8,11a-pentamethyl-1-(prop-1-en-2-yl)icosahydro-1H-cyclopenta[a]chrysen-9-yl)oxy)-2,2-dimethyl-4-oxobutanoic acid]
EC50 [1]: < 100 nM

C=C(C)[C@@H]1CC[C@]2(NCCN3C[C@@H]4C[C@H]3CO4)CC[C@]3(C)[C@H](CC[C@@H]4[C@@]5(C)CC=C(C6=CC7C(C6)C7C(=O)O)C(C)(C)[C@@H]5CC[C@]43C)[C@@H]12 (single isomer, unassigned) [Example B7]
EC50 (MT-2 cells infected for 4-5 days with NLRluc recombinants): 2.28 nM

C=C(C)[C@@H]1CC[C@]2(NCCN3CC4C(C3)C4NS(C)(=O)=O)CC[C@]3(C)[C@H](CC[C@@H]4[C@@]5(C)CC=C(c6ccc(C(=O)O)cc6)C(C)(C)[C@@H]5CC[C@]43C)[C@@H]12 (stereo partly drawn) [Example 17, 4-((1R,3aS,5aR,5bR,7aR,11aS,11bR,13aR,13bR)-5a,5b,8,8,11a-pentamethyl-3a-((2-(6-(methylsulfonamido)-3-azabicyclo[3.1.0]hexan-3-yl)ethyl)amino)-1-(prop-1-en-2-yl)-2,3,3a,4,5,5a,5b,6,7,7a,8,11,11a,11b,12,13,13a,13b-octadecahydro-1H-cyclopenta[a]chrysen-9-yl)benzoic acid]
EC50 [1]: < 100 nM
